For this test, the target named is T1, HoBGLA (Halothermothrix orenii, UniProt B8CYA8).
T1 construct: gene Hore_15280; full length, 451 residues, GH1; pNIC28-Bsa4 N-terminal His6-TEV tag cut off with TEV protease; expressed in E. coli BL21(DE3); 53 kDa
The test is described as follows: X-ray crystal structure, […] Å, crystal soaked with cellobionolactam. In kind it is binding. The following applies: pH 5.5; subsite −1, non-covalent, glucose left after cleavage of cellobionolactam.

T1 sequence (B8CYA8 entry or part of it): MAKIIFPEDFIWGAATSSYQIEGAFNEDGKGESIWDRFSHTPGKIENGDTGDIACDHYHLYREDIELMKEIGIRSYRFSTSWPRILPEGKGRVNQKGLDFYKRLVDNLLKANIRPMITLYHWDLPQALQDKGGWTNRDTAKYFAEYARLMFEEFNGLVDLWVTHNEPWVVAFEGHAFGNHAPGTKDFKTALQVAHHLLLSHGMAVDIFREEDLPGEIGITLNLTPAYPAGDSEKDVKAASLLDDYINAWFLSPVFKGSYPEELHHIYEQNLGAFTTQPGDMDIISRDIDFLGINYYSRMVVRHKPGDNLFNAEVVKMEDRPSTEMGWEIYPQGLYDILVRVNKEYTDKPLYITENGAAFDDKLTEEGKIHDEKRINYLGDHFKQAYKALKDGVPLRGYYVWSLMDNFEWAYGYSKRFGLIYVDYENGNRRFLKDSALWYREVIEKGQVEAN

Turning to `OC[C@H]1O[C@@H](O)[C@H](O)[C@@H](O)[C@@H]1O` [D-glucose], the “X-ray crystal structure, 1.80 Å, crystal soaked with cellobionolactam” value is listed as “The crystal structure of HoBGLA in complex with glucose, representing the post-hydrolysis state”.
